Source: patent US11161830B2, “4-pyridone compound or salt thereof, and pharmaceutical composition and formulation including same” (priority 2017, dated 2021)
Where two headings read alike, the source gives them in different places.

Experiments:
Assay type in all cases: cell-based, hepatitis B virus
HBV [1] = assay: Test Example 1-2: anti-HBV assay in HepG2.2.15 cells (test solution 100 μL/well); settings: culture supernatant
Method: (§1) Using HepG2.2.15 cells (Proc. Natl. Acad. Sci. USA, 84, 1005-1009, 1987) which have an HBV genome introduced into a hepatoblastoma cell line, HepG2, and persistently produce a virus, the anti-HBV activity of the representative compounds was evaluated in the following procedure.
(§2) The following was used as a medium:
(§3) DMEM/F-12, GlutaMAX (manufactured by Invitrogen)+5 μg/mL insulin (manufactured by Wako)+1% penicillin/streptomycin (manufactured by Sigma)+10 mmol/L HEPES (manufactured by Sigma)+50 μmol/L hydrocortisone (manufactured by Sigma)+10% FBS
(§4) A mixture of a test compound with dimethyl sulfoxide (DMSO) was further added to the medium to obtain a final concentration of DMSO of 0.25% (v/v), and thus, test solutions containing the test compound at various concentrations were prepared. In addition, a test solution obtained by adding DMSO alone to the medium to obtain a final concentration of 0.25% (v/v) was prepared as a control without addition of a drug.
(§5) (1) The HepG2.2.15 cells were suspended in the medium to prepare a. HepG2.2.15 cell suspension at 4×10^5 cells/mL. The suspension was seeded in a 96-well microtiter plate (100 μL/well) and the plate was incubated in a 5% CO2 incubator at 37° C. for 2 days.
(§6) (2) The culture supernatant was removed and the cells were washed twice with PBS (−) (100 μL/well).
(§7) (3) The test solution (200 μL/well) was added to the plate of (2) and the plate was incubated in a 5% CO2 incubator at 37° C. for 4 days.
(§8) (4) The culture supernatant was removed, the test solution (200 μL/well) was added again to the plate, and the plate was incubated in a 5% CO2 incubator at 37° C. for 3 days.
(§9) (5) The culture supernatant was collected and treated with a mixture of Buffer AL (manufactured by QIAGEN) and Proteinase K (manufactured by Invitrogen). The amount of DNA of HBV (HBV-DNA) in the obtained solution was absolutely quantified by a real-time PCR method. In addition, HBsAg (hepatitis B surface antigen) in the culture supernatant was absolutely quantified by chemiluminescent enzyme immunoassay using Lumipulse (registered trademark) HBsAg-HQ (manufactured by Fujirebio Inc.). The relative viral load (%) of a well with the compound added to a well without the compound added was calculated. An IC50 of the compound was calculated using a FORECAST function (linear regression method) of Microsoft Office Excel 2007 by plotting the logarithm of the concentration against the relative viral load as a real number.
(§10) The IC50 of HBV-DNA was defined as a concentration (or a logarithm dilution of the culture supernatant) of the compound, in which the amount of HBV-DNA is reduced by 50% as compared a control without the compound added.
(§11) In addition, the IC50 of HBsAg was defined as a concentration (or a logarithm dilution of the culture supernatant) of the compound, in which the amount of HBsAg is reduced by 50% as compared a control without the compound added.
The test was performed by the same method as in Test Example 1-1 except that the amounts of the test solutions of (3) and (4) of Test Example 1-1 was changed to 100 μL/well.

HBV [2] = assay: Test Example 1-1: anti-HBV assay in HepG2.2.15 cells (test solution 200 μL/well); settings: Hepatitis B virus, culture supernatant
Method: as §1, §2, §3, §4, §5, §6, §7, §8, §9, §10, §11

HBV (genotype AeUS) = assay: Test Example 2-1: anti-HBV assay in PXB-cells (fresh human hepatocytes); settings: Hepatitis B virus, Hepatocyte, PXB-cells infected with HBV genotype AeUS, culture supernatant on day 32 post infection
Method: Using fresh human hepatocytes (PXB-cells, manufactured by PhenixBio Co., Ltd.) collected from a PXB mouse (a chimeric mouse with human hepatocytes), the anti-HBV activity of the representative compounds was evaluated in the following procedure.
as §2
DMEM (manufactured by Sigma)+0.25 μg/mL insulin (manufactured by Wako)+1% penicillin/streptomycin. (manufactured by Sigma)+20 mmol/L HEPES (manufactured by Sigma)+15 μg/mL L-proline (manufactured by Sigma)+50 nmol/L dexamethasone (manufactured by Sigma)+5 ng/mL EGF (manufactured by Peprotech)+0.1 mmol/L ascorbic acid 2-phosphate (manufactured by Wako)+10% FBS+2% DMSO
Each of the test compounds) was further added to the medium to prepare a test solution containing each of the test compounds at various concentrations.
(1) PXB-cells seeded at a seeding density of 2.1×10^5 cells/cm^2 in a 96-well microliter plate were incubated in a 5% CO2 incubator at 37° C. until a day on which the cells were infected.
(2) HBV (genotype AeUS) derived from a PXB mouse serum was suspended in the medium containing 4% PEG-8000, and added to the plate of (1) at about 10 copies/cell such that the PXB cells were infected (100 μL/well), and the plate was incubated in a 5% CO2 incubator at 37° C. for 1 day.
(3) The culture supernatant on day 1 post infection was removed and the cells were washed three times with DMEM containing 10% FBS and 1% penicillin/streptomycin. Then, the medium was added to the plate (100 μL/well) and the plate was incubated in a 5% CO2 incubator at 37° C. for 1 day.
(4) The culture supernatant on day 2 post infection was removed and the cells were washed three times with DMEM containing 10% FBS and 1% penicillin/streptomycin. Then, the medium was added to the plate (100 μL/well) and the plate was incubated in a 5% CO2 incubator at 37° C. for 5 days.
(5) The culture supernatant on day 7 post infection was removed, the medium was added to the plate (100 μL/well), and the plate was incubated in a 5% CO2 incubator at 37° C. for 5 days.
(6) The culture supernatant on day 12 post infection was removed, the medium was added to the plate (100 μL/well), and the plate was incubated in a 5% CO2 incubator at 37° C. for 5 days.
(§12) (7) The culture supernatant on day 17 post infection was removed, the test solution was added to the plate (100 μL/well), and the plate was incubated in a 5% CO2 incubator at 37° C. for 5 days. As a control without the compound added, the medium was added to the plate (100 μL/well) and the plate was incubated in a 5% CO2 incubator at 37° C. for 5 days.
as §12, with “(8)” for “(7)”, “22” for “17”
as §12, with “(9)” for “(7)”, “27” for “17”
(10) The culture supernatant on day 32 post infection was collected.
(11) The collected culture supernatant on day 32 post infection was purified with a QIAamp (registered trademark) DNA Blood Mini Kit (manufactured by QIAGEN). The amount of HBV-DNA in the obtained solution was absolutely quantified by a real-time PCR method. In addition, the amount of HBsAg in the culture supernatant was absolutely quantified by chemiluminescent enzyme immunoassay using Lumipulse (registered trademark) HBsAg-HQ (manufactured by Fujirebio Inc.). A relative viral load (%) with respect to a control without the compound added was each calculated. […]

[3] = Hepatitis B virus, read-out: IC50 HBV-DNA
[4] = Hepatitis B virus, read-out: IC50 HBsAg

SMILES | IC50 (HBV [1]; [3]) [nM] | IC50 (HBV [1]; [4]) [nM] | IC50 (HBV [2]; read-out: IC50 HBV-DNA) [nM] | IC50 (HBV [2]; read-out: IC50 HBsAg) [nM] | IC50 (HBV (genotype AeUS); read-out: IC50 HBV-DNA) [nM] | IC50 (HBV (genotype AeUS); read-out: IC50 HBsAg) [nM] | also measured
COCCOC1CN(c2nc3ccc(-n4cc(C(=O)O)c(=O)cc4-c4ccc(N5CC[C@@H](OC)C5)c(F)c4)cc3s2)C1 [Example 23-9] | – | – | – | – | – | – | IC50 (HBV [1]; read-out: IC50 HBV-DNA): 0.68 nM; IC50 (HBV [1]; read-out: IC50 HBsAg): 1.8 nM
CO[C@@H]1CCN(c2ccc(-c3cc(=O)c(C(=O)O)cn3-c3ccc4nc(N5CC(OC(C)C)C5)sc4c3)cc2F)C1 [Example 23-7, (R)-6-(3-fluoro-4-(3-methoxypyrrolidin-1-yl)phenyl)-1-(2-(3-isopropoxyazetidin-1-yl)benzo[d]thiazol-6-yl)-4-oxo-1,4-dihydropyridine-3-carboxylic acid] | 0.65 | 1.1 | – | – | – | – | –
CO[C@@H]1CCN(c2ccc(-c3cc(=O)c(C(=O)O)cn3-c3ccc4nc(N5CC(OC(F)F)C5)sc4c3)cc2F)C1 [Example 23-2, (R)-1-(2-(3-(difluoromethoxy)azetidin-1-yl)benzo[d]thiazol-6-yl)-6-(3-fluoro-4-(3-methoxypyrrolidin-1-yl)phenyl)-4-oxo-1,4-dihydropyridine-3-carboxylic acid] | 0.96 | 2.8 | – | – | – | – | –
CCOC1CN(c2nc3ccc(-n4cc(C(=O)O)c(=O)cc4-c4ccc(N5CC[C@@H](OC)C5)c(F)c4)cc3s2)C1 [Example 23-6, (R)-1-(2-(3-ethoxyazetidin-1-yl)benzo[d]thiazol-6-yl)-6-(3-fluoro-4-(3-methoxypyrrolidin-1-yl)phenyl)-4-oxo-1,4-dihydropyridine-3-carboxylic acid] | 0.45 | 1.1 | – | – | – | – | –
CO[C@@H]1CCN(c2ccc(-c3cc(=O)c(C(=O)O)cn3-c3ccc4nc(N5CC(C)(OC)C5)sc4c3)cc2F)C1 [Example 23-8, (R)-6-(3-fluoro-4-(3-methoxypyrrolidin-1-yl)phenyl)-1-(2-(3-methoxy-3-methylazetidin-1-yl)benzo[d]thiazol-6-yl)-4-oxo-1,4-dihydropyridine-3-carboxylic acid] | 0.89 | 1.4 | – | – | – | – | –
COCCO[C@H]1CCN(c2ccc(-c3cc(=O)c(C(=O)O)cn3-c3ccc4nc(N5CCOCC5)sc4c3)cc2)C1 [Example 22-1, (S)-6-(4-(3-(2-methoxyethoxy)pyrrolidin-1-yl)phenyl)-1-(2-morpholinobenzo[d]thiazol-6-yl)-4-oxo-1,4-dihydropyridine-3-carboxylic acid] | 44 | 89 | – | – | – | – | –
CO[C@@H]1CCN(c2ccc(-c3cc(=O)c(C(=O)O)cn3-c3ccc4nc(N5CC(OCCF)C5)sc4c3)cc2F)C1 [Example 23-4] | – | – | – | – | – | – | IC50 (HBV [1]; read-out: IC50 HBV-DNA): 0.88 nM; IC50 (HBV [1]; read-out: IC50 HBsAg): 3.8 nM
CO[C@@H]1CCN(c2ccc(-c3cc(=O)c(C(=O)O)cn3-c3ccc4nc(N5CCOCC5)sc4c3)cc2Cl)C1 [Example 11, (R)-6-(3-Chloro-4-(3-methoxypyrrolidin-1-yl)phenyl)-1-(2-morpholinobenzo[d]thiazol-6-yl)-4-oxo-,4-dihydropyridine-3-carboxylic acid] | – | – | 13 | 4.9 | 28 | 82 | –
COCCO[C@H]1CCN(c2ccc(-c3cc(=O)c(C(=O)O)cn3-c3ccc4nc(N5CCC[C@@H]5COC)sc4c3)cc2)C1 [Example 22-2, 6-(4-((S)-3-(2-methoxyethoxy)pyrrolidin-1-yl)phenyl)-1-(2-((R)-2-(methoxymethyl)pyrrolidin-1-yl)benzo[d]thiazol-6-yl)-4-oxo-1,4-dihydropyridine-3-carboxylic acid] | 10 | 22 | – | – | – | – | –
COCCCOC1CN(c2nc3ccc(-n4cc(C(=O)O)c(=O)cc4-c4ccc(N5CC[C@@H](OC)C5)c(F)c4)cc3s2)C1 [Example 23-5] | – | – | – | – | – | – | IC50 (HBV [1]; read-out: IC50 HBV-DNA): 0.5 nM; IC50 (HBV [1]; read-out: IC50 HBsAg): 2.7 nM
O=C(O)c1cn(-c2ccc3nc(N4CCCC4)sc3c2)c(-c2ccc(N3CCCC3)cc2)cc1=O [Example 3-3, 4-oxo-1-(2-(pyrrolidin-1-yl)benzo[d]thiazol-6-yl)-6-(4-(pyrrolidin-1-yl)phenyl)-1,4-dihydropyridine-3-carboxylic acid] | – | – | 2 | 5 | 52 | 77 | –
O=C(O)c1cn(-c2ccc3nc(NCc4ncccn4)sc3c2)c(-c2ccc(N3CCCC3)cc2)cc1=O [Example 3-13, 4-oxo-1-(2-((pyrimidin-2-ylmethyl)amino)benzo[d]thiazol-6-yl)-6-(4-(pyrrolidin-1-yl)phenyl)-1,4-dihydropyridine-3-carboxylic acid] | – | – | 3.9 | 5.1 | < 8 | 39 | –
Cc1nc2ccc(-n3cc(C(=O)O)c(=O)cc3-c3ccc(N4CCCC4)c(Br)c3)cc2s1 [Example 5-1, 6-(3-bromo-4-(pyrrolidin-1-yl)phenyl)-1-(2-methylbenzo[d]thiazol-6-yl)-4-oxo-1,4-dihydropyridine-3-carboxylic acid] | – | – | 3.7 | 6.4 | 200 | 150 | –
